# Patent US4728640A, “Treatment of dysmenorrhea” (Roussel Uclaf, priority 1985, dated 1988)
# Legend:
# ovarian steroidogenosis = test: Inhibitory activity on ovarian steroidogenesis in women, intranasal; type: in vivo; details: for reduction of seric levels of progesterone compared to the controls: typical subject (sheet 3)
# Experimental: The inhibitory activity of [D Ser (tbu)^6 des Gly NH2^10 ] LH-RH ethylamide on ovarian steroidogenosis in women was determined on 6 women aged 26 to 35 years with normal and regular menstrual cycles and without prior endocrinal or gynecological problems. […] Two drops of a solution containing 500 μg of [D Ser (tbu)^6 des Gly NH2^10 ] LH-RH ethylamide were deposited on each nostril at 8 A.M. and 5 P.M. of a day between the 4th and 9th day after the peak of LH-day 0. Daily blood samples were taken between 4 and 6 P.M. to measure seric levels of LH, FSH, progesterone and estradiol which were determined by radioimmuno-logictests with double antibodies. The antibodies to measure LH and FSH were furnished by the National Pituitory Agency of N.I.H. of Bethesda, Md.
# Estradiol and progesterone were measured with highly specific antibodies developed against 7-(O-carboxymethyl)-oxime of estradiol and 12-(O-carboxymethyl)-oxime of progesterone, respectively [3H]17β-estradiol and ^125 I-progesterone-12-[O-carboxymethyl)-oxime] used as tracers. The serum was extracted with benzene and the steroids were separated with a LH-20 column before the determination. The radioimmunological results were exploited by the program derived from model II of Rodbard and Lewald as in Example 1 and the statistical significance was measured by the multiple level test of Ducan-Kramer of Example 1. The results are shown in the graphs of sheets 3 to 5 of the Figures.
# [1] = tested on: testicular steroidogensis; test: Inhibitory activity against testicular steroidogenesis in healthy men, single intranasal dose; type: in vivo; details: for steroid/testosterone level on the fourth day after administration: fourth day (until 6th day)
# Experimental: The inhibitory activity of [D Ser (tbu)^6 of des Gly NH2^10 ] LH-RH ethylamide (described in German application Ser. No. 2,438,350) against testicular steroidogensis in men in good health was determined on men in good health aged 30 to 40 years. The said product was administered intranasally at a dose of 500 μg in a few drops of distilled water at 8 A.M. on the third day of the test. For 2 days prior to the treatment and for 6 days after the treatment, samples of blood were taken daily at 8 A.M., 3 P.M. and 10 P.M. On the day of administration of the LH-RH agonist, blood samples were taken at 11 A.M. and 6 P.M.
# The seric concentrations of LH and FSH were measured by radioimmuno-logic dosages with double antibodies and the antibodies for measuring LH and FSH were furnished by the National Pituitary Agency of N.I.H. in Bethesda, Md. The seric concentrations of steroids was measured by radioimmuno-logic dosages in which one ml of serum was extracted with ether and the steroids were separated on a LH-20 column before measuring with radioimmuno-logic dosages. The radioimmuno-logic dosage results were determined by a program derived from model II of Rodbard et al [Second Karolinska Symposium on Research Methods in Reproductive Endrocrinology, Diczfalusky Editor, Copenhague (1970), p. 79-103]. The statistical significance was determined by the "multiple level test" of Duncan-Kramer [Kramer, Biometrics, Vol 12 (1956), p. 307]. The results are shown in the graphs on sheet 1 of the Figures filed herewith.
# [2] = tested on: testicular steriodogenosis; test: Inhibitory activity on testicular steroidogenesis in a patient with prostate cancer, intranasal twice a day; type: in vivo, human; details: 500 μg intranasally twice a day
# From the text: The inhibitory activity of [D Ser (tbu)^6 des Gly NH2^10 ] […] The results are reported in the graphs of sheet 2 of the Figures.
# [3] = human, single intranasal dose 500 μg
# [4] = men, intranasal 500 μg, 3rd day following administration
compound,measurement,setting,value
CCNC(=O)[C@@H]1CCCN1C(=O)[C@H](CCCNC(=N)N)NC(=O)[C@H](CC(C)C)NC(=O)[C@@H](COC(C)(C)C)NC(=O)[C@H](Cc1ccc(O)cc1)NC(=O)[C@H](CO)NC(=O)[C@H](Cc1c[nH]c2ccccc12)NC(=O)[C@H](Cc1c[nH]cn1)NC(=O)[C@@H]1CCC(=O)N1 [[D Ser (tbu)^6 des Gly NH2^10] LH-RH ethylamide],"level of seric progesterone, course",ovarian steroidogenosis; 2 cycles of post-treatment,return to normal
same,"level of seric progesterone, course",ovarian steroidogenosis; 2 cycles of treatment,accelerated diminution
same,reduction of the level of progesterone compared to the controls,"ovarian steroidogenosis; 12 cycles of treatment (sheet 5), scale 13 to 127%",46%
same,progesterone level as % of pretreatment cycles (base 100%),ovarian steroidogenosis; cycles of post-treatment (12 cycles),99%
same,progesterone level as % of pretreatment cycles (base 100%),ovarian steroidogenosis; cycles of treatment (12 cycles),46%
same,reduction of seric levels of progesterone compared to the controls,ovarian steroidogenosis; first cycle of treatment,13%
same,reduction of seric levels of progesterone compared to the controls,ovarian steroidogenosis; second cycle of treatment,34%
same,duration of the drop of seric levels of testicular steroids (testosterone and its precursors),[1]; [3],3 days
same,diminution of the level of testosterone,"[1]; human, single intranasal dose 500 μg, 3rd day following administration",50%
same,steroid/testosterone level on the fourth day after administration,[1]; [3],returned to normal
same,steroid/testosterone level on the fourth day after administration,"[1]; human, single intranasal dose 500 μg, listed as the peptide",return to normal levels
same,LH and FSH plasmatic levels,"[1]; men, intranasal 500 μg",increase
same,concentration of 17-OH-progesterone relative to initial control values,[1]; [4],40%
same,concentration of testosterone relative to initial control values,[1]; [4],50%
same,"seric concentration of pregnenolone, 17-OH-pregnenolone, progesterone, 17-OH-progesterone, Δ5-androstene-3β,17β-diol and testosterone","[1]; men, intranasal 500 μg, day of treatment",increased
same,level of androgenic steroids,[2],diminution
same,level of testosterone,[2]; two weeks of treatment,stabilized at a very low level
